Drawing on PubChem BioAssay (NCI), this text covers TGI for 14 compounds.

Structures are written as SMILES.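 Cultured in 96-well plates, cells were exposed to test compound for 48 hours across five concentrations. TGI: total growth inhibition.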 A value given as a limit tells only on which side of the number the result lay.

Common to all, as to assay: growth of human tumour cells (NCI), 48 h
Test [1] has as its system MCF7 breast.
Test [2] has as its system OVCAR-8 ovarian.
Test [3] has as its system NCI-H460 lung.
For test [4], the system named is OVCAR-3 ovarian.
In test [5] the test system is NCI-H226 lung.
The test system of test [6] is SF-295 CNS.
Test [7] has as its system HS 578T breast.
For test [8], the system named is OVCAR-5 ovarian.
The subject of test [9] is A549 NSCLC.
Test [10] has as its system SW-620 colon.
The subject of test [11] is COLO 205 colon.
Test [12] deals with M14 melanoma.
Test [13] relates to SN12C renal.
Test [14] deals with DU-145 prostate.
The subject of test [15] is RXF 393 renal.
For test [16], the system named is HOP-62 NSCLC.
Test [17] deals with LOX IMVI melanoma.
Test [18] concerns EKVX NSCLC.
The test system of test [19] is HL-60(TB) leukemia.

As to `Cn1ccnc1SC(F)(F)c1nc2ccccc2o1`, the TGI in [1], in test [2], in test [3], in test [4], in test [5] and in test [6] was > 100 µM throughout. Also, the TGI in test [7], in test [8], in test [9], in test [10], in test [11] and in test [12] was > 100 µM in each case. Also, the TGI in test [13], in test [14], in test [15] and in [16] was > 100 µM each time.

With `CC(=O)OC[C@@]12CC[C@H]3C(C)(C)CCC[C@]3(C)[C@H]1C[C@@H](C1=CC(=O)O[C@H]1O)O2`, the TGI in [1] was 11.2 µM; in test [2], 13.7 µM; in test [3], 29 µM; in test [4] it was 3.99 µM; in test [6], 21.3 µM; in test [7], 17 µM. Further, the TGI in test [17] is 3.42 µM; in test [8], 37.8 µM; in test [9] it was 20.4 µM; in test [18] it was 24.3 µM; in test [10], 19.9 µM; in test [11], 10.4 µM. Further, the TGI turned out to be 7.65 µM in [12], 12.4 µM in test [13], 20.4 µM in [14] and 23 µM in test [16].

For `NS(=O)(=O)c1cc(S(N)(=O)=O)c(NC(=O)Nc2ccc(Cl)c(Cl)c2)c(Cl)c1Cl`, the TGI in test [1], in test [2], in test [3], in test [4], in test [5] and in test [6] was > 100 µM each time. The TGI in [7], in test [17], in [8], in [9], in test [18] and in test [10] was > 100 µM throughout. For the same compound, the TGI in test [11], in test [12] and in [13] was > 100 µM throughout.

`CN(C)S(=O)(=O)n1ccnc1`: the TGI in test [1], in [3], in test [4], in [5], in test [6] and in test [17] was > 100 µM each time. The TGI in test [8], in test [9], in test [18], in test [10], in [11] and in test [12] was > 100 µM throughout. Further, the TGI in test [13], in test [15] and in test [16] was > 100 µM throughout.

Consider `COC(=O)C1=C(O)C(C(=O)OC)[C@]2(O)[C@H](C(=O)OC)[C@H]1C[C@@H](c1ccccc1OC)[C@H]2C(=O)OC` (some centres undefined), for which the TGI in [2] is 11.8 µM; in test [3], > 41.8 µM; in [4] it was 35.4 µM; in [5], 20.7 µM; in test [6], 25.6 µM; in test [7], 11 µM. In addition, the TGI came to 9.35 µM in test [17]; 16.4 µM in test [8]; 21.7 µM in test [9]; 29.6 µM in [18]; 19.6 µM in test [10]; 13.3 µM in [11]. In addition, the TGI in test [12] is 10.2 µM; in test [19] it was 10.5 µM; in test [13] it was 17.4 µM; in [14] it was 26.2 µM; in test [15] it was 20.2 µM; in [16] it was 39.1 µM.

With `CNC(=S)NNC1=NCCCN1`, the TGI in test [1], in test [2], in test [3], in test [4], in test [5] and in test [6] was > 100 µM throughout. Besides, the TGI in [7], in [17], in test [8], in test [9], in [18] and in test [10] was > 100 µM in each case. For the same compound, the TGI in test [11], in [12], in test [19], in test [15] and in test [16] was > 100 µM in each case.

`Nn1c(-c2ccccc2Nc2ccccc2-c2n[nH]c(=S)n2N)n[nH]c1=S`: the TGI in [1], in test [2], in [3], in test [4], in test [5] and in [6] was > 50 µM throughout. Moreover, the TGI in [17], in test [8], in test [18], in test [10], in test [11] and in test [12] was > 50 µM throughout. Moreover, the TGI in test [19], in test [14], in test [15] and in test [16] was > 50 µM each time.

Turning to `CCOC(=O)CSc1[nH]c2nc(C)nc(Cl)c2c1C#N`, the TGI in [1], in test [2], in test [6], in test [17], in test [9] and in [18] was > 10 µM throughout. For the same compound, the TGI in [10], in [11], in [12], in [19], in test [13] and in test [14] was > 10 µM each time. Further, the TGI in [15] and in test [16] was > 10 µM in each case.

Regarding `OCC1C(O)C(O)[C@@H]2SCCN12` (some centres undefined), the TGI in test [2], in test [3], in test [4], in test [5], in test [6] and in test [7] was > 100 µM each time. The TGI in test [17], in test [8], in test [9], in [18], in test [10] and in [11] was > 100 µM in each case. The TGI in test [12], in test [19], in test [14], in test [15] and in [16] was > 100 µM in each case.

In the case of `O=C(CC(=O)C(=O)CC(=O)OCc1ccccc1)OCc1ccccc1`, the TGI in test [2], in test [8], in test [9], in test [18], in test [10] and in test [11] was > 100 µM each time. In addition, the TGI in test [12], in [19], in test [13], in [15] and in test [16] was > 100 µM each time.

With `CSc1nc2nc(C)c(C)nc2c(=O)[nH]1`, the TGI in test [2], in [3], in [4], in test [6], in test [17] and in test [8] was > 100 µM each time. Further, the TGI in test [9], in test [18], in [10], in test [11], in [12] and in test [19] was > 100 µM throughout. Further, the TGI in [13], in [15] and in test [16] was > 100 µM each time.

With `CCOC(=O)[C@H](Cc1ccccc1)NC(=O)c1nc[nH]c1[N+](=O)[O-]`, the TGI in test [2], in test [3], in test [4], in test [5], in test [6] and in [17] was > 100 µM throughout. The TGI in test [9], in test [18], in test [10], in test [11], in [12] and in test [19] was > 100 µM each time. The TGI in test [13] and in test [16] was > 100 µM each time.

For the compound `Cn1c(=O)c2[nH]c(/N=N\n3ccc4ccccc43)nc2n(C)c1=O`, the TGI in test [2], in test [3], in test [4], in [5], in test [6] and in test [7] was > 100 µM each time. Besides, the TGI in [17], in test [8], in [9], in test [18], in [10] and in [11] was > 100 µM in each case. In addition, the TGI in test [12], in [19], in [13], in [14], in [15] and in test [16] was > 100 µM throughout.

On to `CC(C)N(CCCNc1c2ccccc2nc2cccc([N+](=O)[O-])c12)C(C)C`, for which the TGI was 13.2 µM in test [1]; < 0.0467 µM in test [2]; < 0.0445 µM in test [3]; 0.325 µM in test [5]; < 0.0457 µM in [6]; 0.0637 µM in test [17]. The TGI in test [9] is 0.0473 µM; in test [10], < 0.0397 µM; in test [11], < 0.015 µM; in test [12] it was < 0.01 µM; in test [14], < 0.01 µM; in test [15] it was 0.0377 µM.
